Measured values as given in patent US20230391838A1 (priority 2020, published 2023).
*1 amine or outer side, *2 acyl side, *3 side chain or, on linkers, in order; H or OH if unused. Where a SMILES comes first, the peptide text is derived from it. Bridges are numbered along the chain shown (N, C = ends). [ ]: non-standard residue; d: D form. Tyr(3-I) = N[C@@H](Cc1ccc(O)c(I)c1)C(=O)O; β3hY = N[C@H](CC(=O)O)Cc1ccc(O)cc1; CH2 = C([*:1])[*:2]

Conditions: pH 7.4

## C[C@@H](O)[C@@H]1NC(=O)[C@@H]2CSCSC[C@@H](C(=O)N[C@H](CC(=O)N[C@@H](CCCNC(=N)N)C(=O)O)Cc3ccc(O)cc3)NC(=O)[C@H](CCC(N)=O)NC(=O)[C@H](Cc3ccc(O)c(I)c3)NC(=O)[C@H](CCCNC(=N)N)NC(=O)[C@H](CSSC[C@H](NC(=O)CN)C(=O)N2)NC(=O)[C@H](CCCNC(=N)N)NC(=O)[C@@H]2CCCN2C(=O)[C@H](CC(=O)O)NC1=O [RgIA-5524, G C^I C^II T D P R C^III R (iY) Q C^IV (bhY) R] (H-GCCTDPRCR[Tyr(3-I)]QC[β3hY]R-OH; disulfide 2-8; linker 3-12 via CH2)
  disulfide scrambling in presence of reduced glutathione (in words): largely suppress disulfide scrambling
